# Source: article PMC8592419 (PLoS ONE, 2021)
# Where two headings read alike, the source gives them in different places. Where a SMILES comes first, the peptide text is derived from it.
# Experiments:
# [1] = system: M. abscessus clinical isolate MAB07; test: In vitro susceptibility testing (DST), CLSI broth microdilution; format: cell-based, M. abscessus subsp. abscessus; parameters: key to DST profile, interpretation, Day 3 / DST profile, interpretation, Day 5 / DST profile, interpretation, Day 14: S, susceptible; I, intermediate; R, resistant; settings: for MIC: Mycobacteroides abscessus
# Description: (§1) Drug susceptibility testing (DST) was performed according to the Clinical and Laboratory Standards Institute (CLSI) guidelines M24-A2 [42] using the broth microdilution method to determine the minimum inhibitory concentration (MIC). […] Colonies were grown at an adjusted cell density to a 0.5 McFarland standard and further diluted to 5×10^5 CFU/ml. […] These were then incubated at 37°C for 3, 5 and 14 days. The MIC was defined as the concentration in which no visible growth was observed. The results were interpreted according to the guidelines of CLSI. Inducible resistance was inferred by changes in MIC values from being susceptible at day 3 to resistant at day 14.
# [2] = system: M. abscessus clinical isolate MAB09; test: as above; format: cell-based, M. abscessus subsp. abscessus; parameters: key to DST profile, interpretation, Day 3 / DST profile, interpretation, Day 5 / DST profile, interpretation, Day 14: S, susceptible; I, intermediate; R, resistant; settings: for MIC: Mycobacteroides abscessus
# Description: as §1
# [3] = 72 h, day 3, read-out: DST profile, MIC value, Day 3
# [4] = 120 h, day 5, read-out: DST profile, MIC value, Day 5
# [5] = 336 h, day 14, read-out: DST profile, MIC value, Day 14
"MIC [1, 3]","MIC [1, 4]","MIC [1, 5]","MIC [2, 3]","MIC [2, 4]","MIC [2, 5]",SMILES,"DST profile, interpretation, Day 3 ([1]; day 3, CLSI interpretation)","DST profile, interpretation, Day 5 ([1]; day 5, CLSI interpretation)","DST profile, interpretation, Day 14 ([1]; day 14, CLSI interpretation)","DST profile, interpretation, Day 3 ([2]; day 3, CLSI interpretation)","DST profile, interpretation, Day 5 ([2]; day 5, CLSI interpretation)","DST profile, interpretation, Day 14 ([2]; day 14, CLSI interpretation)","MIC within 24 h, majority of isolates (10/16)"
4 µg/mL,16 µg/mL,16 µg/mL,0.25 µg/mL,8 µg/mL,8 µg/mL,"CC[C@H]1OC(=O)[C@H](C)[C@@H](O[C@H]2C[C@@](C)(OC)[C@@H](O)[C@H](C)O2)[C@H](C)[C@@H](O[C@@H]2O[C@H](C)C[C@H](N(C)C)[C@H]2O)[C@](C)(OC)C[C@@H](C)C(=O)[C@H](C)[C@@H](O)[C@]1(C)O [CLA, Clarithromycin]",I,R,R,S,R,R,–
–,–,–,–,–,–,CC[C@H](C)[C@H](NC(=O)[C@H](CCCCN)NC(=O)[C@H](CCCNC(=N)N)NC(=O)CNC(=O)[C@H](CC(C)C)NC(=O)[C@H](CO)NC(=O)[C@H](CCCNC(=N)N)NC(=O)[C@H](CC(C)C)NC(=O)CNC(=O)CN)C(=O)N[C@@H](CC(C)C)C(=O)N[C@@H](CCCNC(=N)N)C(=O)N[C@@H](C)C(=O)N[C@@H](Cc1c[nH]c2ccccc12)C(=O)N[C@@H](CCCCN)C(=O)N[C@@H](CCCCN)C(=O)N[C@@H](Cc1ccc(O)cc1)C(=O)O [S61] (H-GGLRSLGRKILRAWKKY-OH),–,–,–,–,–,–,< 50 µg/mL
